How the values were obtained:
Format in all cases: in vivo
Diabrotica balteata = Diabrotica balteata (corn root worm), sprayed maize sprouts; conditions: 96 h, application rate 200 ppm, L2 larvae, 4 days after infestation, read-out: effect in at least one of the two categories (mortality or growth inhibition)
Summary of the method: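 Read-out at 4 days post-infestation: mortality and growth inhibition relative to untreated samples. Test solutions (200 ppm, from DMSO stocks) were sprayed onto agar-held maize sprouts, which after drying received 6–10 L2 larvae per well.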

Plutella xylostella = Plutella xylostella (diamond back moth), artificial diet; conditions: 120 h, application rate 200 ppm, L2 larvae, 5 days after infestation, read-out: effect in at least one of the two categories (mortality or growth inhibition)
Summary of the method: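 L2 larvae (10-15 per well) fed on compound-treated, dried artificial diet; test solutions diluted in water from 10'000 ppm DMSO stocks. Readout 5 days post-infestation as mortality or growth inhibition versus untreated diet, with at least 80% effect at 200 ppm as threshold.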

Spodoptera littoralis [1] = test: Spodoptera littoralis (Egyptian cotton leaf worm), uptake by lettuce roots from agar; conditions: 144 h, read-out: effect in at least one of the three categories (mortality, anti-feeding, or growth inhibition)
Excerpt: Test compounds were applied by pipette from 10'000 ppm DMSO stock solutions into 24-well plates and mixed with agar. Lettuce seeds were placed onto the agar and the multi well plate was closed by another plate which contained also agar. After 7 days the compound was absorbed by the roots and the lettuce grew into the lid plate. The lettuce leaves were then cut off into the lid plate. Spodoptera eggs were pipetted through a plastic stencil onto a humid gel blotting paper and the lid plate was closed with it. The samples were assessed for mortality, anti-feedant effect and growth inhibition in comparison to untreated samples 6 days after infestation.
The following compounds gave an effect of at least 80% in at least one of the three categories (mortality, anti-feeding, or growth inhibition) at a test rate of 12.5 ppm: […]

Myzus persicae = Myzus persicae (green peach aphid): feeding/contact activity; conditions: 144 h, application rate 200 ppm, aphid population of mixed ages, 6 days after infestation, read-out: mortality
Method: (§1) Sunflower leaf discs were placed onto agar in a 24-well microtiter plate and sprayed with aqueous test solutions prepared from 10'000 ppm DMSO stock solutions. After drying, the leaf discs were infested with an aphid population of mixed ages. The samples were assessed for mortality 6 days after infestation.

Tetranychus urticae = Tetranychus urticae (two-spotted spider mite): feeding/contact activity; conditions: 192 h, application rate 200 ppm, mixed population (mobile stages), 8 days after infestation, read-out: mortality
Method: Bean leaf discs on agar in 24-well microtiter plates were sprayed with aqueous test solutions prepared from 10'000 ppm DMSO stock solutions. After drying the leaf discs were infested with a mite population of mixed ages. The samples were assessed for mortality on mixed population (mobile stages) 8 days after infestation.

Thrips tabaci = Thrips tabaci (onion thrips): feeding/contact activity; conditions: 144 h, application rate 200 ppm, Thrips population of mixed ages, 6 days after infestation, read-out: mortality
Method: as §1, with “on” for “onto”, “in” for “in a”, “plates” for “plate”, “drying” for “drying,”, “a Thrips” for “an aphid”

Euschistus heros = Euschistus heros (neotropical brown stink bug), sprayed soybean leaves; conditions: 120 h, application rate 200 ppm, N2 nymphs, 5 days after infestation, read-out: effect in at least one of the two categories (mortality or growth inhibition)
Summary of the method: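 Scored 5 days post-infestation versus untreated controls, for both mortality and growth inhibition: N2 nymphs placed on agar-mounted soybean leaves previously sprayed at 200 ppm with aqueous test solutions from DMSO stocks and left to dry.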

Spodoptera littoralis [2] = test: Spodoptera littoralis (Egyptian cotton leaf worm), sprayed cotton leaf discs; conditions: foliar, 72 h, application rate 200 ppm, L1 larvae, 3 days after infestation, read-out: control (mortality, anti-feeding effect, growth inhibition)
Summary of the method: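 Five first-instar larvae placed on dried cotton leaf discs (on agar) previously sprayed with aqueous dilutions of 10'000 ppm DMSO stocks. Scored at 3 days against untreated discs for mortality, feeding inhibition and growth inhibition; any category above untreated counts as control.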

Cc1cc(C2=NO[C@@](c3cc(Cl)c(Cl)c(Cl)c3)(C(F)(F)F)C2)ccc1C(=O)N[C@@H]1CON(S(=O)(=O)N(C)C)C1 (single isomer, unassigned) [Compound A112]
≥ 80%: percent effect (mortality or growth inhibition) at 200 ppm (Diabrotica balteata) | percent effect (mortality or growth inhibition) at 200 ppm (Plutella xylostella) | percent control (mortality, anti-feedant effect or growth inhibition) at 12.5 ppm (Spodoptera littoralis [1]) | mortality at 200 ppm (Myzus persicae) | mortality at 200 ppm (Tetranychus urticae) | mortality at 200 ppm (Thrips tabaci) | percent effect (mortality or growth inhibition) at 200 ppm (Euschistus heros) | mortality at 200 ppm (Spodoptera littoralis [2])

Cc1cc(C2=NO[C@@](c3cc(Cl)c(F)c(Cl)c3)(C(F)(F)F)C2)ccc1C(=O)N[C@H]1CON(S(=O)(=O)N(C)C)C1 (single isomer, unassigned) [Compound A143]
≥ 80%: percent effect (mortality or growth inhibition) at 200 ppm (Diabrotica balteata) | percent effect (mortality or growth inhibition) at 200 ppm (Plutella xylostella) | percent control (mortality, anti-feedant effect or growth inhibition) at 12.5 ppm (Spodoptera littoralis [1]) | mortality at 200 ppm (Myzus persicae) | mortality at 200 ppm (Tetranychus urticae) | mortality at 200 ppm (Thrips tabaci) | percent effect (mortality or growth inhibition) at 200 ppm (Euschistus heros) | mortality at 200 ppm (Spodoptera littoralis [2])

Cc1cc(C2=NO[C@@](c3cc(Cl)c(F)c(Cl)c3)(C(F)(F)F)C2)ccc1C(=O)NC1CON(S(=O)(=O)CCl)C1 (stereo partly drawn) [Compound A5, N-[2-(chloromethylsulfonyl)isoxazolidin-4-yl]-4-[(5S)-5-(3,5-dichloro-4-fluoro-phenyl)-5-(trifluoromethyl)-4H-isoxazol-3-yl]-2-methyl-benzamide]
≥ 80%: percent effect (mortality or growth inhibition) at 200 ppm (Diabrotica balteata) | percent effect (mortality or growth inhibition) at 200 ppm (Plutella xylostella) | percent control (mortality, anti-feedant effect or growth inhibition) at 12.5 ppm (Spodoptera littoralis [1]) | mortality at 200 ppm (Myzus persicae) | mortality at 200 ppm (Tetranychus urticae) | mortality at 200 ppm (Thrips tabaci) | percent effect (mortality or growth inhibition) at 200 ppm (Euschistus heros) | mortality at 200 ppm (Spodoptera littoralis [2])

Cc1cc(C2=NO[C@@](c3cc(Cl)c(F)c(Cl)c3)(C(F)(F)F)C2)ccc1C(=O)NC1CON(S(=O)(=O)C2CC2)C1 (stereo partly shown) [Compound A6]
≥ 80%: percent effect (mortality or growth inhibition) at 200 ppm (Diabrotica balteata) | percent effect (mortality or growth inhibition) at 200 ppm (Plutella xylostella) | percent control (mortality, anti-feedant effect or growth inhibition) at 12.5 ppm (Spodoptera littoralis [1]) | mortality at 200 ppm (Myzus persicae) | mortality at 200 ppm (Tetranychus urticae) | mortality at 200 ppm (Thrips tabaci) | percent effect (mortality or growth inhibition) at 200 ppm (Euschistus heros) | mortality at 200 ppm (Spodoptera littoralis [2])

Cc1cc(C2=NO[C@@](c3cc(Cl)c(F)c(Cl)c3)(C(F)(F)F)C2)ccc1C(=O)NC1CON(S(=O)(=O)N(C)C)C1 (stereo partly shown) [Compound A10]
≥ 80%: percent effect (mortality or growth inhibition) at 200 ppm (Diabrotica balteata) | percent effect (mortality or growth inhibition) at 200 ppm (Plutella xylostella) | percent control (mortality, anti-feedant effect or growth inhibition) at 12.5 ppm (Spodoptera littoralis [1]) | mortality at 200 ppm (Myzus persicae) | mortality at 200 ppm (Tetranychus urticae) | mortality at 200 ppm (Thrips tabaci) | percent effect (mortality or growth inhibition) at 200 ppm (Euschistus heros) | mortality at 200 ppm (Spodoptera littoralis [2])

Cc1cc(C2=NO[C@@](c3cc(Cl)c(F)c(Cl)c3)(C(F)(F)F)C2)ccc1C(=O)NC1CON(S(=O)(=O)CCC(F)(F)F)C1 (stereo partly shown) [Compound A11]
≥ 80%: percent effect (mortality or growth inhibition) at 200 ppm (Diabrotica balteata) | percent effect (mortality or growth inhibition) at 200 ppm (Plutella xylostella) | percent control (mortality, anti-feedant effect or growth inhibition) at 12.5 ppm (Spodoptera littoralis [1]) | mortality at 200 ppm (Myzus persicae) | mortality at 200 ppm (Tetranychus urticae) | mortality at 200 ppm (Thrips tabaci) | percent effect (mortality or growth inhibition) at 200 ppm (Euschistus heros) | mortality at 200 ppm (Spodoptera littoralis [2])

CS(=O)(=O)N1CC(NC(=O)c2ccc(C3=NO[C@@](c4cc(Cl)c(F)c(Cl)c4)(C(F)(F)F)C3)cc2Cl)CO1 (stereo partly drawn) [Compound A19, 2-chloro-4-[(5S)-5-(3,5-dichloro-4-fluoro-phenyl)-5-(trifluoromethyl)-4H-isoxazol-3-yl]-N-(2-methylsulfonylisoxazolidin-4-yl)benzamide]
≥ 80%: percent effect (mortality or growth inhibition) at 200 ppm (Diabrotica balteata) | percent effect (mortality or growth inhibition) at 200 ppm (Plutella xylostella) | percent control (mortality, anti-feedant effect or growth inhibition) at 12.5 ppm (Spodoptera littoralis [1]) | mortality at 200 ppm (Myzus persicae) | mortality at 200 ppm (Tetranychus urticae) | mortality at 200 ppm (Thrips tabaci) | percent effect (mortality or growth inhibition) at 200 ppm (Euschistus heros) | mortality at 200 ppm (Spodoptera littoralis [2])

Cc1cc(C2=NO[C@@](c3cc(Cl)cc(C(F)(F)F)c3)(C(F)(F)F)C2)ccc1C(=O)NC1CON(S(C)(=O)=O)C1 (stereo partly shown) [Compound A20]
≥ 80%: percent effect (mortality or growth inhibition) at 200 ppm (Diabrotica balteata) | percent effect (mortality or growth inhibition) at 200 ppm (Plutella xylostella) | percent control (mortality, anti-feedant effect or growth inhibition) at 12.5 ppm (Spodoptera littoralis [1]) | mortality at 200 ppm (Myzus persicae) | mortality at 200 ppm (Tetranychus urticae) | mortality at 200 ppm (Thrips tabaci) | percent effect (mortality or growth inhibition) at 200 ppm (Euschistus heros) | mortality at 200 ppm (Spodoptera littoralis [2])

CCS(=O)(=O)N1CC(NC(=O)c2ccc(C3=NO[C@@](c4cc(Cl)c(Cl)c(Cl)c4)(C(F)(F)F)C3)cc2C)CO1 (stereo partly drawn) [Compound A27, N-(2-ethylsulfonylisoxazolidin-4-yl)-2-methyl-4-[(5S)-5-(3,4,5-trichlorophenyl)-5-(trifluoromethyl)-4H-isoxazol-3-yl]benzamide]
≥ 80%: percent effect (mortality or growth inhibition) at 200 ppm (Diabrotica balteata) | percent effect (mortality or growth inhibition) at 200 ppm (Plutella xylostella) | percent control (mortality, anti-feedant effect or growth inhibition) at 12.5 ppm (Spodoptera littoralis [1]) | mortality at 200 ppm (Myzus persicae) | mortality at 200 ppm (Tetranychus urticae) | mortality at 200 ppm (Thrips tabaci) | percent effect (mortality or growth inhibition) at 200 ppm (Euschistus heros) | mortality at 200 ppm (Spodoptera littoralis [2])

Cc1cc(C2=NOC(c3cc(Cl)cc(Cl)c3)(C(F)(F)F)C2)ccc1C(=O)NC1CON(S(C)(=O)=O)C1 (stereo not shown) [Compound A33, 4-[5-(3,5-dichlorophenyl)-5-(trifluoromethyl)-4H-isoxazol-3-yl]-2-methyl-N-(2-methylsulfonylisoxazolidin-4-yl)benzamide]
≥ 80%: percent effect (mortality or growth inhibition) at 200 ppm (Diabrotica balteata) | percent effect (mortality or growth inhibition) at 200 ppm (Plutella xylostella) | percent control (mortality, anti-feedant effect or growth inhibition) at 12.5 ppm (Spodoptera littoralis [1]) | mortality at 200 ppm (Myzus persicae) | mortality at 200 ppm (Tetranychus urticae) | mortality at 200 ppm (Thrips tabaci) | percent effect (mortality or growth inhibition) at 200 ppm (Euschistus heros) | mortality at 200 ppm (Spodoptera littoralis [2])

Cc1cc(C2=NO[C@@](c3cc(Cl)c(Cl)c(Cl)c3)(C(F)(F)F)C2)ccc1C(=O)NC1CON(S(N)(=O)=O)C1 (stereo partly shown) [Compound A35]
≥ 80%: percent effect (mortality or growth inhibition) at 200 ppm (Diabrotica balteata) | percent effect (mortality or growth inhibition) at 200 ppm (Plutella xylostella) | percent control (mortality, anti-feedant effect or growth inhibition) at 12.5 ppm (Spodoptera littoralis [1]) | mortality at 200 ppm (Myzus persicae) | mortality at 200 ppm (Tetranychus urticae) | mortality at 200 ppm (Thrips tabaci) | percent effect (mortality or growth inhibition) at 200 ppm (Euschistus heros) | mortality at 200 ppm (Spodoptera littoralis [2])

Cc1cc(C2=NO[C@@](c3cc(Cl)c(Cl)c(Cl)c3)(C(F)(F)F)C2)ccc1C(=O)N[C@H]1CON(S(C)(=O)=O)C1 [Compound A36]
≥ 80%: percent effect (mortality or growth inhibition) at 200 ppm (Diabrotica balteata) | percent effect (mortality or growth inhibition) at 200 ppm (Plutella xylostella) | percent control (mortality, anti-feedant effect or growth inhibition) at 12.5 ppm (Spodoptera littoralis [1]) | mortality at 200 ppm (Myzus persicae) | mortality at 200 ppm (Tetranychus urticae) | mortality at 200 ppm (Thrips tabaci) | percent effect (mortality or growth inhibition) at 200 ppm (Euschistus heros) | mortality at 200 ppm (Spodoptera littoralis [2])

Cc1cc(C2=NO[C@@](c3cc(Cl)cc(Cl)c3)(C(F)(F)F)C2)ccc1C(=O)N[C@H]1CON(S(C)(=O)=O)C1 [Compound A38]
≥ 80%: percent effect (mortality or growth inhibition) at 200 ppm (Diabrotica balteata) | percent effect (mortality or growth inhibition) at 200 ppm (Plutella xylostella) | percent control (mortality, anti-feedant effect or growth inhibition) at 12.5 ppm (Spodoptera littoralis [1]) | mortality at 200 ppm (Myzus persicae) | mortality at 200 ppm (Tetranychus urticae) | mortality at 200 ppm (Thrips tabaci) | percent effect (mortality or growth inhibition) at 200 ppm (Euschistus heros) | mortality at 200 ppm (Spodoptera littoralis [2])

Cc1cc(C2=NO[C@@](c3cc(Cl)cc(Cl)c3)(C(F)(F)F)C2)ccc1C(=O)N[C@H]1CON(S(=O)(=O)N(C)C)C1 [Compound A39]
≥ 80%: percent effect (mortality or growth inhibition) at 200 ppm (Diabrotica balteata) | percent effect (mortality or growth inhibition) at 200 ppm (Plutella xylostella) | percent control (mortality, anti-feedant effect or growth inhibition) at 12.5 ppm (Spodoptera littoralis [1]) | mortality at 200 ppm (Myzus persicae) | mortality at 200 ppm (Tetranychus urticae) | mortality at 200 ppm (Thrips tabaci) | percent effect (mortality or growth inhibition) at 200 ppm (Euschistus heros) | mortality at 200 ppm (Spodoptera littoralis [2])
